Laboratory results from patent publication US10982219B2, “Guayule with increased rubber production and yield” (The United States of America, as represented by the …, priority 2017, dated 2021).

Tests used:
Format in all cases: in vivo, Parthenium argentatum
PaAos = assay: qRT-PCR of PaAOS in SA treated soil-grown guayule; conditions: 10 nM SA to soil twice weekly for two months
Experimental: (§1) The effect of SA on guayule PaAos gene expression is tested in wild-type guayule G7-11 plants. SA is added to the growth medium (K0) in tissue culture at different concentrations, 0 nM, 10 nM and 100 nM. Shoot tips are transferred to the growth media, and plants are grown for 8 weeks. The rubber content of the plant tissues is determined by standard procedures (ASE, see Example 3 supra). […] The effect of exogenous 10 nM SA on one month old guayule plants grown in the soil under greenhouse conditions is also examined.

guayule G7-11 plants [1] = assay: Exogenous SA applied to soil of greenhouse guayule, growth and rubber content; conditions: 50 ml of 10 nM SA to soil twice weekly for two months
Experimental: as §1

guayule G7-11 plants [2] = assay: Exogenous SA in tissue culture growth medium, rubber content by ASE; conditions: 8 weeks, versus 0 nM
Experimental: as §1

SMILES: O=C(O)c1ccccc1O [SA, salicylic acid]
- PaAOS expression (qRT-PCR) (PaAos): low expression pattern
- height and primary stem diameter (guayule G7-11 plants [1]; versus mock or water treated): significant differences in the height and primary stem diameter
- rubber content (guayule G7-11 plants [1]; versus mock treated): slightly increases and significantly differs
- amount of rubber produced (guayule G7-11 plants [2]; 10 nM SA in growth medium): increases the amount of rubber produced in a significant manner
- amount of rubber produced (guayule G7-11 plants [2]; 100 nM SA in growth medium): increases the amount of rubber produced in a significant manner
